Experiments:
Chromogranin A = assay: Western analysis of chromogranin A, BON-raf cells treated with estradiol; type: cell-based, human
Experimental: Usually, carcinoid tumors secrete high levels of both chromogranin A and serotonin due to disregulated hormone production. Similarly, BON cells treated with control or estradiol, and BON-raf cells treated with control had high levels of the NE marker chromogranin A as determined by Western analysis. […] In addition, BON and BON-raf cells were tested for serotonin secretion by ELISA after treatment with control or estradiol.
Cell culture. Human pulmonary carcinoid cells (NCI-H727) were obtained from American Type Culture Collection (Manassas, Va.) and human pancreatic carcinoid tumor cells, BON a generous gift of Drs. Evers and Townsend (Parekh et al., 1994), were maintained in RPMI 1640 and D-MEM-F12 media (Life Technologies, Rockville, Md.) respectively supplemented with 10% Fetal Bovine Serum (Sigma, St. Louis, Mo.), 100 IU/ml penicillin and 100 μg/ml streptomycin (Life Technologies) in a humidified atmosphere of 5% CO2 in air at 37° C. The maintenance of BON-raf cells and the activation of Raf-1 were followed as described previously (Sippel et al., 2003; Sippel and Chen, 2002; McMahon, 2001).
Western blot analysis. Cellular extracts were prepared and quantified by BCA protein assay kit (Pierce, Rockford, Ill.) as previously described (Sippel et al., 2003). 30-50 μg of denatured proteins from each sample underwent electrophoresis on a SDS-polyacrylamide gel and transferred to a nitrocellulose membranes (Schleicher and Schuell, Keene, N.H.). Membranes were blocked for 1 hr in milk solution (1×PBS, 5% non-fat dry milk, 0.05% Tween-20) and then incubated at 4° C. overnight with primary antibodies. The following primary antibody dilutions were used: phospho-ERK 1/2 (1:1,000); phospho-MEK (1:1,000); phospho-Raf-1 (Serine338) (1:1,000); p21 and p18, (1:1,000); (Cell Signal Technology, Beverly, Mass.), Chromogranin A (1:2,000; Zymed Laboratories, San Francisco, Calif.); MASH-1 (1:1000, BD Pharmingen) and G3PDH (1:10,000; Trevigen, Gaithersburg, Md.). After primary antibody incubation, membranes were washed 3×5 min in PBS-T wash buffer (1×PBS, 0.05% Tween 20). […]

in vitro [1] = conditions: human, BON cells
Experimental: (§1) Cells tested (H727 and BON) were harvested by trypsinization and plated at a cell density of 3,000 cells/well of each microtiter plate. Cells were grown for 4 hrs at 37° C., with 5% CO2 in a humidified incubator to allow cell attachment to occur before compound addition. […] 10 μl of each compound stock was added to duplicate microtiter plates for each cell line. The final concentration of DMSO in all wells was 1%. To test 200 μM, 2% DMSO was added to each well. Data was compared to the effect of 2% DMSO. All compounds were tested in duplicate. Cells were incubated with the test compounds for 72 hrs before reading the assay. Then processing and calculation were performed according to manufacturer's directions for Cell Titer Glo Assay (Promega, Madison, Wis.).

in vitro [2] = conditions: human, H727 cells
Experimental: as §1

[3] = test system: c-Raf as well as MEK and ERK; conditions: human monocytic THP-1 cells; cited from earlier work

C[C@]12CC[C@@H]3c4ccc(O)cc4CC[C@H]3[C@@H]1CC[C@@H]2O [Estradiol]
reduction of chromogranin A levels (Chromogranin A; 2 days): 31% | reduction of chromogranin A levels (Chromogranin A; 4 days): 68% | reduction of chromogranin A levels (Chromogranin A; 6 days): 50%

COc1cccc2c1C(=O)c1c(O)c3c(c(O)c1C2=O)C[C@@](O)(C(=O)CO)C[C@@H]3O[C@H]1C[C@H](N)[C@H](O)[C@H](C)O1 [Doxorubicin]
IC50 at 72 h (in vitro [1]): 1400 nM | IC50 at 72 h (in vitro [2]): 1100 nM

COc1nccc(-c2c(-c3ccc(F)cc3)ncn2C2CCC(O)CC2)n1 (stereo not drawn) [SB239063]
activation of c-Raf, MEK and ERK [3]: activates c-Raf as well as MEK and ERK
